Source: patent US11952385B1, “12-bromo-2,16-dioxa-9,9,18,18-tetramethylpentacyclo[7.7.5.0 1, 21.0 3,8.0 10,15]henicosa3(8),10,12,14-tetraene-7,20-dione as an antimicrobial compound” (KING FAISAL UNIVERSITY, priority 2023, dated 2024)

Tests used:
Type in all cases: cell-based
Details in all cases: after 10, 20, 40 and 60 minutes at all dilutions 1:100, 1:200, 1:400, and 1:800
[1] = tested on: Staphylococcus aureus; assay: Antimicrobial activity by agar dilution, St. Aereus
Experimental: (§1) The antibacterial properties of the synthesized compound (12-bromo-2,16-dioxa-9,9,18,18-tetramethylpentacyclo[7.7.5.0^1,21.0^3,8.0^10,15]henicosa3(8),10,12,14-tetraene-7,20-dione) were studied by the method of agar dilution. Test solutions of each compound was prepared in concentration of 1% using dimethylformamide as a solvent. Then they were diluted in physiological solution to obtain the final experimental dilutions of 1:100, 1:200, 1:400, and 1:800. The effect of these substances were compared with furacillin in a controllable study. The testing microbes used were gram positive bacteria Staphylococcus aureus, gram negative bacteria Pseudomonas aeruginosa, Escherichia coli, and Candida albicans fungus. The experiments used for this survey were meat-pentonlu agar (EPA) for cultivation of bacteria and Saburo environment for fungi. Each experiment used 1 mL of test solution on each plate for 500 minutes. Two drops of emulsified with microbes feel were added. All experimental samples were taken from the agar after 10, 20, 40, 60 minutes in the environment on the basis of Patrk planted. Bacteria were cultivated at a temperature of 37° C. for 1 day and the mushroom was kept in a thermostat for 2 hours at a temperature of 28° C. Then results were checked. […]

[2] = tested on: Escherichia coli; assay: Antimicrobial activity by agar dilution, E. Coli
Experimental: as §1

[3] = tested on: Pseudomonas aeruginosa; assay: Antimicrobial activity by agar dilution, Ps. aeruginosa
Experimental: as §1

[4] = tested on: Candida albicans; assay: Antimicrobial (antifungal) activity by agar dilution, Candida albicans
Experimental: as §1

Measured: inhibition activity compared with the inhibition activity of Furacilin

CC1(C)CC(=O)C2=C(C1)OC13CC(C)(C)CC(=O)C1C2c1cc(Br)ccc1O3 (stereo not shown) [12-bromo-2,16-dioxa-9,9,18,18-tetramethylpentacyclo[7.7.5.0^1,21.0^3,8.0^10,15]henicosa3(8),10,12,14-tetraene-7,20-dione]
higher inhibition activity: all assays above
